Earlier results, collected in US10815533B2, “Biomarker for diagnosing anticancer drug resistance of gastric cancer and use thereof” (SAMSUNG LIFE PUBLIC WELFARE FOUNDATION, priority 2017, dated 2020).

B1: FPA144: selective monoclonal antibody against the FGFR2b subtype (antibody, chains of the INN, looked up, V domains shown)
VH: QVQLVQSGAEVKKPGSSVKVSCKASGYIFTTYNVHWVRQAPGQGLEWIGSIYPDNGDTSYNQNFKGRATITADKSTSTAYMELSSLRSEDTAVYYCARGDFAYWGQGTLVTVSS
VL: DIQMTQSPSSLSASVGDRVTITCKASQGVSNDVAWYQQKPGKAPKLLIYSASYRYTGVPSRFSGSGSGTDFTFTISSLQPEDIATYYCQQHSTTPYTFGQGTKLEIK

Tests used:
[1] = tested on: gastric cancer cell line in which FGFR2 was amplified; conditions: preclinical result
FGFR2b+gastric cancer = conditions: phase I clinical trial, 3 out of 9

| Molecule | antitumor efficacy [1] | response rate (FGFR2b+gastric cancer) |
| --- | --- | --- |
| CCN1CCN(c2ccc(Nc3cc(N(C)C(=O)Nc4c(Cl)c(OC)cc(OC)c4Cl)ncn3)cc2)CC1 [BGJ398] | strong antitumor efficacy |  |
| B1 |  | 33% |
